The record followed here is patent US8158809B2 (priority 2003, dated 2012).

The structures appear in SMILES notation.

The assay concerns HCT116. The assay can be described thus: Cell colony formation assay. The class given is cell-based. Particulars: 72 hours with drug, colonies counted after 7 days. How it is done: This example provides directions for growing cells and testing compounds of the invention for their effect on the growth of the cells. All cells were purchased from DCTDC Tumor Repository, NCI, NIH.
The cells were incubated in a CO2 incubator at 37° C. for 5 hours for attachment to the bottom of Petri dishes. Drugs were made fresh in medium at ten times the final concentration, and then 0.3 ml of this stock solution was added to the 2.7 ml of medium in the dish. The cells were then incubated with drugs for 72 hours at 37° C. At the end of the incubation the drug-containing media were decanted, the dishes were rinsed with 4 ml of Hank's Balance Salt Solution (HBSS), 5 ml of fresh medium was added, and the dishes were returned to the incubator for colony formation. The cell colonies were counted using colony counter after incubation for 7 days for HCT116 cells and PC-3 cells and 8 days for VM46 cells, respectively. Cell survival (%) was calculated, as shown in Table I below for HCT 116 cells.

In the case of `CC[C@@]1(OC(=O)COc2ccc(C(=O)O[C@H]3c4cc5c(cc4[C@@H](c4cc(OC)c(OC)c(OC)c4)C4C(=O)OCC43)OCO5)cc2)C(=O)OCc2c1cc1n(c2=O)Cc2cc3ccccc3nc2-1` (stereo partly shown) [Compound 000801, Podophyllotoxin-4-O-ester of camptothecin-20-O-ester of 4-carboxylicphenoxyacetic acid], the “In Vitro Efficacy: Survival (%) of HCT116” value (1 nM) is 99.83%, the “In Vitro Efficacy: Survival (%) of HCT116” value (10 nM) is 0%, the “In Vitro Efficacy: Survival (%) of HCT116” value (100 nM) is 0% and the “In Vitro Efficacy: Survival (%) of HCT116” value (1000 nM) came out at 0%.

On to `COc1cc(C2c3cc4c(cc3C(OC(=O)CCCc3ccc(N(CCCl)CCCl)cc3)C3COC(=O)C23)OCO4)cc(OC)c1OC` (stereo not shown) [Compound 0003132, Podophyllotoxin-4-O-ester of 4-(4-dichloroethylamino) phenylbutyric acid], for which the “In Vitro Efficacy: Survival (%) of HCT116” value is reported as 97.65% (100 nM) and 0% (1000 nM).

For the molecule `COc1cc([C@@H]2c3cc4c(cc3[C@@H](O[C@@H]3O[C@@H]5CO[C@@H](C)O[C@H]5[C@H](O)[C@H]3O)[C@H]3COC(=O)[C@H]23)OCO4)cc(OC)c1O` [Etoposide, reference compound], the “In Vitro Efficacy: Survival (%) of HCT116” value (10 nM) is 100%.
